This note sets out measurements from DBAASP.

The structures appear in SMILES notation. In brackets after ≈: the same amount, converted by molar mass. Bounds are passed on as bounds.

Holding throughout (assay): ≥ marks a high value that may be exact or a test limit, other limits are often not marked, values filed in µg/mL are converted to µM
For assay [1], the system named is Escherichia coli BL21.
Assay [2] has as its system Pseudomonas aeruginosa PAO1.
Assay [3] has as its system Staphylococcus aureus USA 300.
Assay [4] has as its system Streptococcus pyogenes M1T1 5448.
In assay [5] the test system is Acinetobacter baumannii LMG 01041.
The test system of assay [6] is Escherichia coli LMG 15862.
In assay [7] the test system is Klebsiella aerogenes LMG 02094.
The test system of assay [8] is Klebsiella pneumoniae LMG 20218.
The subject of assay [9] is Pseudomonas aeruginosa LMG 6395.
The test system of assay [10] is Candida albicans.
Assay [11] relates to Pseudomonas aeruginosa ATCC 27853.
Assay [12] relates to Staphylococcus aureus ATCC 49476.
In assay [13] the test system is Staphylococcus aureus MR.
Assay [14] concerns Acinetobacter baumannii.
Assay [15] has as its system Escherichia coli ATCC 25922.
The subject of assay [16] is Klebsiella pneumoniae ATCC 700603.
The test system of assay [17] is Klebsiella pneumoniae.
Assay [18] deals with Pseudomonas aeruginosa ATCC 9027.
The test system of assay [19] is Staphylococcus aureus ATCC 29737.
Assay [20] relates to Phytophthora nicotianae.
In assay [21] the test system is Acinetobacter baumannii ATCC 7978.
For assay [22], the system named is Klebsiella pneumoniae WGLW2.
Assay [23] concerns Pseudomonas aeruginosa PA14.
For assay [24], the system named is Staphylococcus aureus ATCC 29231.
Assay [25] deals with Enterococcus faecium E007.
The test system of assay [26] is Staphylococcus aureus MW2.
Assay [27] deals with Candida albicans FRR 5580.
Assay [28] deals with Staphylococcus aureus ATCC 25923.
For assay [29], the system named is Staphylococcus aureus.
Assay [30] has as its system Acinetobacter baumannii ATCC 19606.
Assay [31] deals with Enterobacter cloacae ATCC 13047.
Assay [32] relates to Enterococcus faecium ATCC 19434.
Assay [33] deals with Escherichia coli BW25113 ΔsbmA.
Assay [34] relates to Escherichia coli BW25113.

In general, MIC refers to the lowest concentration that inhibits growth of the organism.

For the compound `CC[C@H](C)[C@H](NC(=O)[C@H](CCCN=C(N)N)NC(=O)[C@H](CCCCN)NC(=O)[C@@H](NC(=O)[C@H](CCCCN)NC(=O)[C@H](CCCN=C(N)N)NC(=O)[C@@H](NC(=O)[C@H](Cc1ccc(O)cc1)NC(=O)[C@H](CCCN=C(N)N)NC(=O)[C@H](CCCN=C(N)N)NC(=O)[C@H](CC(C)C)NC(=O)[C@H](CCC(=O)O)NC(=O)[C@H](CCCCN)NC(=O)[C@H](C)NC(=O)[C@@H](NC(=O)[C@H](CCCN=C(N)N)NC(=O)[C@H](CC(N)=O)NC(=O)[C@@H](NC(=O)CNC(=O)[C@H](C)N)[C@@H](C)O)[C@@H](C)CC)[C@@H](C)CC)C(C)C)C(=O)N[C@@H](C)C(=O)N[C@@H](CCCN=C(N)N)C(=O)N[C@@H](CCCCN)C(=O)N[C@@H](C)C(=O)N[C@@H](Cc1c[nH]c2ccccc12)C(=O)O` [AGTNRIAKELRRYIRKVKRIARKAW], the minimal inhibitory concentration (MIC) was found to be 0.5 µM (≈ 1.53 µg/mL) in [1], 16 µM (≈ 48.9 µg/mL) in assay [2], 16 µM (≈ 48.9 µg/mL) in [3] and 1 µM (≈ 3.05 µg/mL) in [4].
In the case of `CC[C@H](C)[C@H](NC(=O)[C@H](C)N)C(=O)N[C@H](C(=O)N[C@@H](CCC(N)=O)C(=O)N[C@@H](CCCN=C(N)N)C(=O)N[C@H](C(=O)N[C@@H](CCCCN)C(=O)N[C@@H](CCCCN)C(=O)N[C@@H](Cc1c[nH]c2ccccc12)C(=O)N[C@@H](CC(C)C)C(=O)N[C@@H](CCCN=C(N)N)C(N)=O)[C@@H](C)CC)C(C)C` [AIVQRIKKWLR], the MIC in assay [5] is at least 128 µM; in assay [6], 12 µM (≈ 16.9 µg/mL); in assay [7], at least 128 µM; in [8], 24 µM (≈ 33.8 µg/mL); in assay [9] it was 16 µM (≈ 22.6 µg/mL).
Regarding `CC[C@H](C)[C@H](NC(=O)[C@H](CC(C)C)NC(=O)[C@H](CCCN=C(N)N)NC(=O)[C@H](Cc1cnc[nH]1)NC(=O)[C@H](CCC(=O)O)NC(=O)[C@H](C)NC(=O)[C@H](CCCCN)NC(=O)CNC(=O)[C@H](C)NC(=O)[C@H](CO)NC(=O)[C@H](Cc1ccccc1)NC(=O)[C@H](CC(C)C)NC(=O)CNC(=O)CNC(=O)[C@@H](NC(=O)[C@@H](NC(=O)[C@H](Cc1cnc[nH]1)NC(=O)[C@H](Cc1cnc[nH]1)NC(=O)[C@@H](NC(=O)[C@@H](N)Cc1ccccc1)[C@@H](C)CC)[C@@H](C)CC)[C@@H](C)CC)C(=O)N[C@@H](CCCN=C(N)N)C(=O)N[C@@H](CCCN=C(N)N)C(=O)N[C@@H](CCCN=C(N)N)C(=O)N[C@@H](CCCN=C(N)N)C(=O)N[C@@H](CCCN=C(N)N)C(=O)O` [FIHHIIGGLFSAGKAEHRLIRRRRR], the MIC in assay [10] was 42.7 µM (≈ 128 µg/mL); in assay [11] it was over 171 µM; in [12], at least 171 µM; in [13] it was at least 171 µM.
As to `CC(C)C[C@H](NC(=O)[C@H](Cc1c[nH]c2ccccc12)NC(=O)[C@@H](NC(=O)[C@H](CC(C)C)NC(=O)[C@@H]1CCCN1C(=O)[C@@H](N)Cc1ccccc1)[C@@H](C)O)C(=O)N[C@@H](CCCCN)C(=O)N[C@@H](Cc1c[nH]c2ccccc12)C(=O)N[C@@H](Cc1c[nH]c2ccccc12)C(=O)N[C@@H](CCCCN)C(=O)N[C@@H](Cc1c[nH]c2ccccc12)C(=O)N[C@@H](CCCCN)C(=O)N[C@@H](CCCCN)C(N)=O` [FPLTWLKWWKWKK], the MIC in assay [14] was 16.9 µM (≈ 31.2 µg/mL); in assay [15] it was 16.9 µM (≈ 31.2 µg/mL); in [16] it was 8.45 µM (≈ 15.6 µg/mL); in assay [17], 8.66 µM (≈ 16 µg/mL); in [18] it was 33.8 µM (≈ 62.5 µg/mL); in [19] it was 8.45 µM (≈ 15.6 µg/mL).
In assay [20], `CC[C@H](C)[C@H](NC(=O)CN)C(=O)N[C@@H](Cc1ccccc1)C(=O)N[C@@H](CO)C(=O)N[C@@H](CCCCN)C(=O)N[C@@H](CC(C)C)C(=O)N[C@@H](C)C(=O)NCC(=O)N[C@@H](CCCCN)C(=O)N[C@@H](CCCCN)C(=O)N[C@@H](CC(C)C)C(=O)N[C@@H](CCCCN)C(=O)N[C@@H](CC(N)=O)C(=O)N[C@@H](CC(C)C)C(=O)N[C@@H](CC(C)C)C(=O)N[C@H](C(=O)N[C@@H](CO)C(=O)NCC(=O)N[C@@H](CC(C)C)C(N)=O)[C@@H](C)CC` [GIFSKLAGKKLKNLLISGL] registered an MIC of 12 µM (≈ 24 µg/mL).
With `CC[C@H](C)[C@H](NC(=O)[C@H](Cc1c[nH]c2ccccc12)NC(=O)[C@H](CCCCN)NC(=O)[C@@H](N)CC(C)C)C(=O)NCC(=O)N[C@@H](CCCCN)C(=O)N[C@@H](CCCCN)C(=O)N[C@H](C(=O)N[C@@H](Cc1c[nH]c2ccccc12)C(=O)N[C@@H](CCCN=C(N)N)C(=O)N[C@H](C(=O)NCC(=O)O)C(C)C)[C@@H](C)CC` [LKWIGKKIWRVG], the MIC in assay [21], in assay [22], in assay [23] and in [24] was at least 86.3 µM each time.
For the compound `CC[C@H](C)[C@H](NC(=O)[C@H](Cc1c[nH]c2ccccc12)NC(=O)[C@H](CCCCN)NC(=O)[C@@H](N)CC(C)C)C(=O)NCC(=O)N[C@@H](CCCCN)C(=O)N[C@@H](Cc1c[nH]c2ccccc12)C(=O)N[C@H](C(=O)N[C@@H](Cc1c[nH]c2ccccc12)C(=O)N[C@@H](CCCN=C(N)N)C(=O)N[C@H](C(=O)NCC(=O)N[C@@H](Cc1c[nH]c2ccccc12)C(=O)N[C@@H](CC(N)=O)C(=O)N[C@@H](Cc1c[nH]c2ccccc12)C(=O)N[C@@H](CCCN=C(N)N)C(=O)O)C(C)C)[C@@H](C)CC` [LKWIGKWIWRVGWNWR], the minimum inhibitory concentration (MIC) in [21] is at least 58.6 µM; in assay [25], at least 58.6 µM; in assay [24] it was at least 58.6 µM; in [26], 29.3 µM (≈ 64 µg/mL).
Regarding `NCCCC[C@H](NC(=O)[C@H](Cc1c[nH]c2ccccc12)NC(=O)[C@H](Cc1c[nH]c2ccccc12)NC(=O)[C@H](CCCCN)NC(=O)[C@H](Cc1c[nH]c2ccccc12)NC(=O)[C@H](Cc1c[nH]c2ccccc12)NC(=O)[C@H](CCCN=C(N)N)NC(=O)[C@H](Cc1c[nH]c2ccccc12)NC(=O)[C@H](Cc1c[nH]c2ccccc12)NC(=O)[C@H](CCCN=C(N)N)NC(=O)[C@H](CCCCN)NC(=O)[C@@H](N)CCCN=C(N)N)C(=O)N[C@@H](CCCN=C(N)N)C(N)=O` [RKRWWRWWKWWKR], the MIC in [27] came to 29.8 µM (≈ 64 µg/mL); in assay [15] it was 7.46 µM (≈ 16 µg/mL); in assay [18], 7.46 µM (≈ 16 µg/mL); in assay [28], 7.46 µM (≈ 16 µg/mL); in assay [29], 5.28 µM (≈ 11.3 µg/mL).
Turning to `CC[C@H](C)[C@H](NC(=O)[C@H](CCCN=C(N)N)NC(=O)[C@@H](N)Cc1c[nH]c2ccccc12)C(=O)N[C@@H](CCCN=C(N)N)C(=O)N[C@@H](CCCN=C(N)N)C(=O)N[C@@H](CCCN=C(N)N)C(=O)N[C@@H](Cc1c[nH]c2ccccc12)C(=O)N1CCC[C@H]1C(=O)N[C@@H](CCCN=C(N)N)C(=O)N[C@@H](CC(C)C)C(=O)N1CCC[C@H]1C(=O)N[C@@H](CCCN=C(N)N)C(=O)N1CCC[C@H]1C(=O)N[C@@H](CCCN=C(N)N)C(=O)N[C@@H](Cc1c[nH]c2ccccc12)C(=O)N[C@@H](CCCN=C(N)N)C(=O)O` [WRIRRRWPRLPRPRWR], the MIC in assay [30] was 4 µM (≈ 9.38 µg/mL); in [31], 8 µM (≈ 18.8 µg/mL); in assay [32] it was at least 32 µM; in assay [33], 4 µM (≈ 9.38 µg/mL); in assay [34] it was 2 µM (≈ 4.69 µg/mL); in assay [16], 2 µM (≈ 4.69 µg/mL). Also, the MIC in [11] was 32 µM (≈ 75 µg/mL); in assay [28], 12 µM (≈ 28.1 µg/mL).
